{"source": "paper PMC6152209", "about": "“Synthesis, Characterization and In Vitro Evaluation of a Novel Glycol Chitosan-EDTA Conjugate to Inhibit Aminopeptidase-Mediated Degradation of Thymopoietin Oligopeptides” (Molecules : A Journal of Synthetic Chemistry and Natural …, 2017)", "key": {"[1]": {"target": "T1, leucine aminopeptidase (Sus scrofa, UniProt P15145)", "T1 sequence (P15145 1-963)": "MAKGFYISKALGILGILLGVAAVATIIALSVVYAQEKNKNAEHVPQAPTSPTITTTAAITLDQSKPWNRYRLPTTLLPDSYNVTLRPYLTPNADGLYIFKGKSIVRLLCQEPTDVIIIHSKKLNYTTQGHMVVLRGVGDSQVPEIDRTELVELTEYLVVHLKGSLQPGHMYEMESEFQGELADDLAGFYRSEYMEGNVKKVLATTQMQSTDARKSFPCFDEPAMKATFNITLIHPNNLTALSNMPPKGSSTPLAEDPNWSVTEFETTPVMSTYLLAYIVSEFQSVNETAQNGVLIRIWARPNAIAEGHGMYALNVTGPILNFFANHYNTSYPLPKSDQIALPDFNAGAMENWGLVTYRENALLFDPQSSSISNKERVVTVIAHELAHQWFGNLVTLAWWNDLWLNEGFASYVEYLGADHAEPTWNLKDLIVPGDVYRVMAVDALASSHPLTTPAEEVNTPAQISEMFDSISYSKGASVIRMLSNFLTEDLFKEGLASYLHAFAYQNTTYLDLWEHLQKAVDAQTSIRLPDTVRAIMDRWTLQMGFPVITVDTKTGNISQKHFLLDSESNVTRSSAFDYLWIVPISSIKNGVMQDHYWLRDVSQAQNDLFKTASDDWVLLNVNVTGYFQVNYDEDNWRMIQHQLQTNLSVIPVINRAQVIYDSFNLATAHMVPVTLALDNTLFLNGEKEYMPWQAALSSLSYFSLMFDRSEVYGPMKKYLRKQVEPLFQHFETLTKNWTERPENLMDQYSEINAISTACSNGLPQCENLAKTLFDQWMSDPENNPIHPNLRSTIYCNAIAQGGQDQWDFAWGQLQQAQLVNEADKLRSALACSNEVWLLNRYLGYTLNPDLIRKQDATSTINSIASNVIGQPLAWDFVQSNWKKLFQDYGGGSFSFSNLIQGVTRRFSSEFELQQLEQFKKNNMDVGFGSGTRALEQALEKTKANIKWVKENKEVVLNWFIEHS", "conditions": "pH 7", "protocol": "(§1) After a 30-min enzymatic activation, the stock solutions of three thymopoietin oligopeptides were added into the above solution and made the final concentration of peptides at 0.1 mM. At specified time intervals after adding peptide, 100 µL aliquots were sampled and diluted with an equal volume of 1 M perchloric acid incubated in an ice bath to stop reaction. Meanwhile, a 100 mL aliquot of the abovementioned buffer was added to the incubation medium. […] All experiments were replicated at least three times.\n(§2) Cldeg was determined by linear regression analysis from plots of ΣM versus the AUC at different time points [3, 11]."}, "[2]": {"experiment": "cobalt ion chelation-mediated fluorescence recovery of calcein", "format": "physicochemical", "conditions": "calcein 0.0625 µg/mL, calcein:cobalt dichloride 1:1 molar, normalized maximum fluorescence emission F/F0, excitation 490 nm", "description": "It is well known that calcein fluorescence can be strongly quenched by cobalt ions at physiological pH, while removal of cobalt ion from the complex by EDTA-mediated chelation will lead to a significant increase in fluorescence intensity. Thus, the chelating capacity of the resultant conjugate can be determined by measuring the cobalt ion-chelating-mediated fluorescence recovery of calcein. […] The excitation wavelength of calcein was set at 490 and its emission was monitored in the range of 500–650 nm. The slits of excitation and emission were set at 5 and 3 nm, respectively. All background effects were subtracted. In addition, the same experiment was done in the presence of EDTA."}, "[3]": {"target": "T1, leucine aminopeptidase", "experiment": "leucine aminopeptidase-mediated degradation of thymopoietin oligopeptides (degradation kinetics and clearance)", "conditions": "peptide 0.1 mM, LAP 0.01 U/mL, Krebs phosphate buffer pH 7.0, 37 °C, RP-HPLC, Cldeg from ΣM versus AUC, at least three replicates", "protocol": "as §1, §2"}}, "note": "Read-outs that look alike come from different tables or passages of the source. Residues, ends and D or L forms follow the SMILES beside them.", "data": [{"smiles": "N=C(N)NCCC[C@H](N)C(=O)N[C@@H](CCCCN)C(=O)N[C@@H](CC(=O)O)C(=O)O", "note": "[TP3, Thymotrinan] (H-Arg-Lys-Asp-OH)", "values": [{"measurement": "order of susceptibility to leucine aminopeptidase (degradation clearance)", "setting": "[1]", "value": "TP4 > TP5 > TP3"}]}, {"smiles": "O=C(O)CN(CCN(CC(=O)O)CC(=O)O)CC(=O)O", "note": "[EDTA, ethylene diamine tetraacetic acid]", "values": [{"measurement": "EDTA group concentration above which the calcein fluorescence plateau was reached (almost complete removal of cobalt ions from the calcein/cobalt ion complex)", "setting": "[2]", "value": "higher than 0.67 µM"}]}, {"smiles": "CC(C)[C@H](NC(=O)[C@H](CC(=O)O)NC(=O)[C@H](CCCCN)NC(=O)[C@@H](N)CCCNC(=N)N)C(=O)O", "note": "[TP4, thymocartin] (H-RKDV-OH)", "values": [{"measurement": "order of susceptibility to leucine aminopeptidase (degradation clearance)", "setting": "[3]", "value": "TP4 > TP5 > TP3"}]}]}
